Assay results: paper PMC7181703, “Using proteolysis-targeting chimera technology to reduce navitoclax platelet toxicity and improve its senolytic activity” (Nature Communications, 2020)
Read-outs that look alike come from different tables or passages of the source.

What was measured:
cereblon (CRBN) = cereblon (CRBN) (Homo sapiens, UniProt Q96SW2); experiment: CRBN-dependent Bcl-xl degradation in WI38 cells: CRBN knockout, pomalidomide competition, N-methyl negative control; type: cell-based
Bcl-xl = target: T1, Bcl-xl (Homo sapiens, UniProt Q07817); experiment: AlphaLISA/AlphaScreen competitive binding with biotin-tagged BAD peptide
T1 construct: gene BCL2L1; Purified recombinant His-tagged Bcl-xl

Bcl-2 = target: T2, Bcl-2 (Homo sapiens, UniProt P10415); parameters: AlphaLISA competitive displacement of biotin-tagged BAD or BIM peptide from His-tagged Bcl-2 family protein; details: inhibitor
T2 construct: gene BCL2; Purified recombinant His-tagged Bcl-2

Bcl-w = target: T3, Bcl-w (Homo sapiens, UniProt Q92843); experiment: biochemical; parameters: AlphaLISA competitive displacement of biotin-tagged BAD or BIM peptide from His-tagged Bcl-2 family protein
T3 construct: gene BCL2L2; Purified recombinant His-tagged Bcl-w
T3 sequence (Q92843 2-193): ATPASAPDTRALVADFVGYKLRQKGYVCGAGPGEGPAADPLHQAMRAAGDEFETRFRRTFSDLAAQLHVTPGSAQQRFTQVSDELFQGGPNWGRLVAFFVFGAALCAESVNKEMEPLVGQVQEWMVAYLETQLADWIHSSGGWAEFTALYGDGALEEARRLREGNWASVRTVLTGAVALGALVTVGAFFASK
Procedure: Purified recombinant His-tagged Bcl-xl, His-tagged Bcl-2 and His-tagged Bcl-w (Cat. No. SRP0187 for Bcl-xl, Cat. No. SRP0186 for Bcl-2 and Cat. No. B1059 for Bcl-w, Sigma-Aldrich) were incubated with increasing concentrations of compounds and a fixed concentration of biotin-tagged BAD (Cat No. SQ-ASPE-66592-1, AnaSpec, Fremont, CA) (for Bcl-xl) or BIM (Cat. No. SQ-ASPE-66592-2, AnaSpec) (for Bcl-2 and Bcl-w) peptides to a final volume of 40 µL in 96-well PCR plates. After 24 h incubation, 5 µL 6X His-Acceptor beads (final concentration 20 µg/mL) (Cat. No. AL128M, Perkin-Elmer, Waltham, MA, USA) were added to each well and incubated for 1 h. Thereafter, 5 µL streptavidin-donor beads were added (final concentration of 20 µg/mL) (Cat. No. 6760002, Perkin-Elmer) to each well and incubated for 30 min. At the end of the incubation period, 17 µL of each sample was transferred into adjacent wells of 384-well proxy plate (Cat. No. 6008280, Perkin-Elmer). The plate was scanned using Alpha program on a Biotek’s Synergy Neo2 multi-mode plate reader (Winooski, VT, USA). Gen5 version 3.04 software (BioTek, USA) was used for the AlphaLISA signal measurements. The inhibition constant (Ki) was calculated using non-linear regression, one site, competitive binding, fit Ki function on GraphPad Prism 7 software based on experimentally determined Kd for each protein/peptide pair.

| Ki (Bcl-xl) [nM] | Ki (Bcl-2) [nM] | Ki (Bcl-w; inhibitor) [nM] | Ki (Bcl-w) [nM] | SMILES | CRBN-dependent Bcl-xl degradation in WI38 cells: CRBN knockout, pomalidomide com (cereblon (CRBN)) |
| --- | --- | --- | --- | --- | --- |
| 1.9 | 3.52 | > 1000 |  | CC1(C)CCC(c2ccc(Cl)cc2)=C(CN2CCN(c3ccc(C(=O)NS(=O)(=O)c4ccc(N[C@H](CCN5CCN(C(=O)CCCn6cc(COCCOCCNc7cccc8c7C(=O)N(C7CCC(=O)NC7=O)C8=O)nn6)CC5)CSc5ccccc5)c(S(=O)(=O)C(F)(F)F)c4)cc3)CC2)C1 (some centres unmarked) [PZ, PZ15227] | PZ had no effect on the levels of Bcl-xl in CRBN knockout cells (Fig. 2e) |
|  |  |  | 8.5 | CC1(C)CCC(c2ccc(Cl)cc2)=C(CN2CCN(c3ccc(C(=O)NS(=O)(=O)c4ccc(N[C@H](CCN5CCOCC5)CSc5ccccc5)c(S(=O)(=O)C(F)(F)F)c4)cc3)CC2)C1 [ABT263] |  |
